{
  "source": "patent US10759758B2",
  "about": "“Polymorphic form of N-{6-(hydroxypropan-2-yl)-2-[2-(methylsulphonyl)ethyl]-2H-indazol-5-yl}-6-(trifluoromethyl)pyridine-2-carboxamide” (Bayer Pharma Aktiengesellschaft, priority 2016, dated 2020)",
  "assay": "Thermodynamic stability of the solid forms of compound (I)",
  "format": "physicochemical",
  "conditions": "compared with the other solid forms of compound (I)",
  "data": [
    {"molecule": "CC(C)(O)c1cc2nn(CCS(C)(=O)=O)cc2cc1NC(=O)c1cccc(C(F)(F)F)n1", "note": "[Polymorphic form B, N-{6-(2-Hydroxypropan-2-yl)-2-[2-(methylsulphonyl)ethyl]-2H-indazol-5-yl}-6-(trifluoromethyl)pyridine-2-carboxamide]", "values": [
      {"measurement": "thermodynamic stability among solid forms", "result": "thermodynamically stable form"}
    ]}
  ]
}
